Measurements taken from patent US8119563B2, “N-substituted azacycles” (FMC Corporation, priority 2003, dated 2012).

Tested on: tobacco budworm (Heliothis virescens [Fabricius])
Experiment: surface-treated diet test, insecticidal activity against tobacco budworm
Format: in vivo
Set-up: mortality: concentration or dose not given beside the values
Details: 0.25 millimoles of candidate insecticide on the surface of the diet, second instar larvae, five-day exposure; for mortality / pest or weed control at 0.25 mmol/well: Heliothis virescens, 120 h; for mortality / Percent Mortality: compared to total number of insects infested; for mortality: read-out: Percent Mortality; for pest or weed control at 0.25 mmol/well / Percent Growth Inhibition: inhibition of insect weight relative to untreated controls; for pest or weed control at 0.25 mmol/well: read-out: Percent Growth Inhibition
Experimental: Candidate insecticides were evaluated for activity against the tobacco budworm (Heliothis virescens [Fabricius]) in a surface-treated diet test.
In this test one mL of molten (65-70° C.) wheat germ-based artificial diet was pipetted into each well of a four by six (24 well) multi-well plate (ID# 430345-15.5 mm dia.×17.6 mm deep; Corning Costar Corp., One Alewife Center, Cambridge, Mass. 02140). The diet was allowed to cool to ambient temperature before treatment with candidate insecticide.
For a determination of insecticidal activity, solutions of the candidate insecticides were prepared for testing using a Packard 204DT Multiprobe® Robotic System (Packard Instrument Company, 800 Research Parkway, Meriden, Conn. 06450), in which the robot first diluted a standard 50 millimolar DMSO solution of candidate insecticide with a 1:1 water/acetone solution (V/V) in a ratio of 1:7 stock solution to water/acetone. The robot subsequently pipetted 40 microliters of the so-prepared solution onto the surface of the diet in each of three wells in the 24 multi-well plate. The process was repeated with solutions of seven other candidate insecticides. Once treated, the contents of the multi-well plate were allowed to dry, leaving 0.25 millimoles of candidate insecticide on the surface of the diet, or a concentration of 0.25 millimolar. Appropriate untreated controls containing only DMSO on the diet surface were also included in this test.
For evaluations of the insecticidal activity of a candidate insecticide at varying rates of application, the test was established as described above using sub-multiples of the standard 50 millimolar DMSO solution of candidate insecticide. For example, the standard 50 millimolar solution was diluted by the robot with DMSO to give 5, 0.5, 0.05, 0.005, 0.0005 millimolar, or more dilute solutions of the candidate insecticide. In these evaluations there were six replicates of each rate of application placed on the surface of the diet in the 24 multi-well plate, for a total of four rates of application of candidate insecticide in each plate.
In each well of the test plate was placed one second instar tobacco budworm larvea, each weighing approximately five milligrams. After the larvae were placed in each well, the plate was sealed with clear polyfilm adhesive tape. The tape over each well was perforated to ensure an adequate air supply. The plates were then held in a growth chamber at 25° C. and 60% relative humidity for five days (light 14 hours/day).
After the five-day exposure period insecticidal activity for each rate of application of candidate insecticide was assessed as percent inhibition of insect weight relative to the weight of insects from untreated controls, and percent mortality when compared to the total number of insects infested.
The test compounds of formula I are identified by numbers that correspond to those in Table 1.

Row | SMILES | mortality [%] | pest or weed control at 0.25 mmol/well [%] | Percent Mortality [%] | Percent Growth Inhibition [%]
1 | FC(F)(F)Oc1ccc(C(c2ccc(OC(F)(F)F)cc2)C2(F)CCN(Cc3ccc(Oc4ncccn4)cc3)CC2)cc1 [Compound 192, 4-{bis[4-(trifluoromethoxy)phenyl]methyl}-4-fluoro-1-[(4-pyrimidin-2-yloxyphenyl)methyl]piperidine] | 100 | 100 | – | –
2 | FC(F)(F)c1ccc(C(c2ccc(C(F)(F)F)cc2)C2(F)CCN(Cc3ccc(Oc4ccccn4)cc3)CC2)cc1 [Compound 193] | – | – | 100 | 100
3 | FC(F)(F)c1ccc(C(c2ccc(C(F)(F)F)cc2)C2(F)CCN(Cc3ccc(Oc4ncccn4)cc3)CC2)cc1 [Compound 194] | – | – | 100 | 100
4 | CCOC(=O)C1(C(Cl)(c2ccc(C(F)(F)F)cc2)c2ccc(C(F)(F)F)cc2)CCN(Cc2ccc(Oc3ccccn3)cc2)CC1 [Compound 195, ethyl 4-{bis[4-(trifluoromethyl)phenyl]chloromethyl}-1-[(4-(2-pyridyloxy)phenyl)methyl]piperidine-4-carboxylate] | 100 | 100 | – | –
5 | Cc1ccc(Oc2ccc(CN3CCC(O)(C(c4ccc(OC(F)(F)F)cc4)c4ccc(OC(F)(F)F)cc4)CC3)cc2)nn1 [Compound 255] | – | – | 100 | 100
6 | O=Cc1ccc(C(c2ccc(OC(F)(F)F)cc2)C2(O)CCN(Cc3ccc(Oc4ccccn4)cc3)CC2)cc1 (stereo not shown) [Compound 256] | – | – | 17 | 100
7 | CC(C)(C)c1ccc(C(c2ccc(OC(F)(F)F)cc2)C2(O)CCN(Cc3ccc(Oc4ccccn4)cc3)CC2)cc1 (stereo not shown) [Compound 257] | – | – | 100 | 100
8 | COCCOCCON=Cc1ccc(CN2CCC(O)(C(c3ccc(OC(F)(F)F)cc3)c3ccc(OC(F)(F)F)cc3)CC2)cc1 [Compound 258] | – | – | 100 | 100
9 | CCOCON=Cc1ccc(CN2CCC(O)(C(c3ccc(OC(F)(F)F)cc3)c3ccc(OC(F)(F)F)cc3)CC2)cc1 [Compound 259] | – | – | 100 | 100
10 | COc1ccc(C(c2ccc(OC(F)(F)F)cc2)C2(O)CCN(Cc3ccc(Oc4ccccn4)cc3)CC2)cc1 (stereo not shown) [Compound 260] | – | – | 100 | 100
11 | OC1(C(c2ccc(Br)cc2)c2ccc(OC(F)(F)F)cc2)CCN(Cc2ccc(Oc3ccccn3)cc2)CC1 (stereo not shown) [Compound 261] | – | – | 100 | 100
12 | Cc1ccc(C(c2ccc(OC(F)(F)F)cc2)C2(O)CCN(Cc3ccc(Oc4ccccn4)cc3)CC2)cc1 (stereo not shown) [Compound 262] | – | – | 100 | 100
13 | OC1(C(c2ccc(OC(F)(F)F)cc2)c2ccc(OC(F)(F)F)cc2)CCN(Cc2ccc(C3OCCO3)cc2)CC1 [Compound 263] | – | – | 100 | 100
14 | OC1(C(c2ccc(C(F)(F)F)cc2)c2ccc(C(F)(F)F)cc2)CCN(Cc2ccc(C3OCCO3)cc2)CC1 [Compound 264] | – | – | 33 | 100
15 | OC1(C(c2ccc(OC(F)(F)F)cc2)c2ccc(C(F)(F)F)cc2)CCN(Cc2ccc(Oc3ccccn3)cc2)CC1 (stereo not shown) [Compound 265] | – | – | 100 | 100
16 | COCCON=Cc1ccc(CN2CCC(O)(C(c3ccc(OC(F)(F)F)cc3)c3ccc(OC(F)(F)F)cc3)CC2)cc1 [Compound 266] | – | – | 100 | 100
17 | OC1(C(c2ccc(Cl)cc2)c2ccc(Cl)cc2)CCN(Cc2ccc(Oc3ccccn3)cc2)CC1 [Compound 267] | – | – | 100 | 100
18 | ON=Cc1ccc(CN2CCC(O)(C(c3ccc(C(F)(F)F)cc3)c3ccc(C(F)(F)F)cc3)CC2)cc1 [Compound 270] | – | – | 100 | 100
19 | Cc1cccnc1Oc1ccc(CN2CCC(O)(C(c3ccc(OC(F)(F)F)cc3)c3ccc(OC(F)(F)F)cc3)CC2)cc1 [Compound 271] | – | – | 100 | 100

Row | SMILES | mortality [%] | pest or weed control at 0.25 mmol/well [%] | Percent Mortality [%] | Percent Growth Inhibition [%]
20 | Cc1ccc(Oc2ccc(CN3CCC(O)(C(c4ccc(OC(F)(F)F)cc4)c4ccc(OC(F)(F)F)cc4)CC3)cc2)nc1 [Compound 272] | – | – | 100 | 100
21 | CCOC(OCC)c1ccc(CN2CCC(O)(C(c3ccc(OC(F)(F)F)cc3)c3ccc(OC(F)(F)F)cc3)CC2)cc1 [Compound 273] | – | – | 100 | 100
22 | COc1ccc(Oc2ccc(CN3CCC(O)(C(c4ccc(OC(F)(F)F)cc4)c4ccc(OC(F)(F)F)cc4)CC3)cc2)nn1 [Compound 274] | – | – | 100 | 100
23 | N#CCON=Cc1ccc(CN2CCC(O)(C(c3ccc(OC(F)(F)F)cc3)c3ccc(OC(F)(F)F)cc3)CC2)cc1 [Compound 275] | – | – | 100 | 100
24 | Cc1cccc(Oc2ccc(CN3CCC(O)(C(c4ccc(OC(F)(F)F)cc4)c4ccc(OC(F)(F)F)cc4)CC3)cc2)n1 [Compound 276] | – | – | 100 | 100
25 | CON=C(Cl)c1ccc(CN2CCC(O)(C(c3ccc(OC(F)(F)F)cc3)c3ccc(OC(F)(F)F)cc3)CC2)cc1 [Compound 277] | – | – | 100 | 100
26 | CCOC(=O)COc1ccc(CN2CCC(O)(C(c3ccc(OC(F)(F)F)cc3)c3ccc(OC(F)(F)F)cc3)CC2)cc1 [Compound 279] | – | – | 83 | 100
27 | CC1(C)COC(c2ccc(CN3CCC(O)(C(c4ccc(OC(F)(F)F)cc4)c4ccc(OC(F)(F)F)cc4)CC3)cc2)OC1 [Compound 280] | – | – | 100 | 100
28 | N#Cc1cccnc1Oc1ccc(CN2CCC(O)(C(c3ccc(OC(F)(F)F)cc3)c3ccc(OC(F)(F)F)cc3)CC2)cc1 [Compound 281] | – | – | 100 | 100
29 | N#Cc1ccc(Oc2ccc(CN3CCC(O)(C(c4ccc(OC(F)(F)F)cc4)c4ccc(OC(F)(F)F)cc4)CC3)cc2)nc1 [Compound 283] | – | – | 100 | 100
30 | CONC(=O)c1ccc(CN2CCC(O)(C(c3ccc(OC(F)(F)F)cc3)c3ccc(OC(F)(F)F)cc3)CC2)cc1 [Compound 285] | – | – | 100 | 100
31 | OC1(C(c2ccc(OC(F)(F)F)cc2)c2ccc(OC(F)(F)F)cc2)CCN(Cc2ccc(Oc3cccc(Cl)c3)cc2)CC1 [Compound 286] | – | – | 100 | 100
32 | OC1(C(c2ccc(OC(F)(F)F)cc2)c2ccc(OC(F)(F)F)cc2)CCN(Cc2ccc(Oc3ccc(Cl)cc3)cc2)CC1 [Compound 290] | – | – | 100 | 100
33 | CCOC(=O)COc1ccc(CN2CCC(O)(C(c3ccc(C(F)(F)F)cc3)c3ccc(C(F)(F)F)cc3)CC2)cc1 [Compound 291] | – | – | 17 | 100
34 | OC1(C(c2ccc(OC(F)(F)F)cc2)c2ccc(OC(F)(F)F)cc2)CCN(Cc2ccc(C3OCCCO3)cc2)CC1 [Compound 292] | – | – | 100 | 100
35 | OC1(C(c2ccc(OC(F)(F)F)cc2)c2ccc(OC(F)(F)F)cc2)CCN(Cc2ccc(OCC=C(Cl)Cl)cc2)CC1 [Compound 293] | – | – | 100 | 100
36 | OC1(C(c2ccc(OC(F)(F)F)cc2)c2ccc(OC(F)(F)F)cc2)CCN(Cc2ccc(Oc3ccccc3Cl)cc2)CC1 [Compound 297] | – | – | 100 | 100
37 | O=C(NC1CC1)Oc1ccc(CN2CCC(O)(C(c3ccc(OC(F)(F)F)cc3)c3ccc(OC(F)(F)F)cc3)CC2)cc1 [Compound 298] | – | – | 100 | 100
38 | OC1(C(c2ccc(C(F)(F)F)cc2)c2ccc(C(F)(F)F)cc2)CCN(Cc2ccc(OCC3CC3)cc2)CC1 [Compound 299] | – | – | 100 | 100
